# Test results reported in the supplement of paper PMC11451515.
# Tested on: SEM cells
# Test: cell viability relative to DMSO control; higher = less cytotoxic
# Details: 48 h
# Summary of the method: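 Viability, reported as a per-plate percentage of DMSO wells with cell-free wells as background, came from CellTiter-Glo One luminescence. Reading took place after 48 h at 37°C. Before that, NOMO1 or SEM (500 cells/well) or P12-Ichikawa (1000 cells/well) leukemia cells, adapted for at least four passages in each medium, were seeded in 1536-well plates (5 μl) and pin-dosed with library compounds in DMSO, 47 μM to 0.79 nM over 11 threefold points.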
# [1] = HPLM + 10% dialyzed FBS, 0.000781 µM
# [2] = HPLM + 10% dialyzed FBS, 0.00234 µM
# [3] = HPLM + 10% dialyzed FBS, 0.00702 µM
# [4] = HPLM + 10% dialyzed FBS, 0.0211 µM
# [5] = HPLM + 10% dialyzed FBS, 0.0632 µM
# [6] = HPLM + 10% dialyzed FBS, 0.19 µM
# [7] = HPLM + 10% dialyzed FBS, 0.569 µM
# [8] = HPLM + 10% dialyzed FBS, 1.71 µM
# [9] = HPLM + 10% dialyzed FBS, 5.12 µM
# [10] = HPLM + 10% dialyzed FBS, 15.4 µM
# [11] = HPLM + 10% dialyzed FBS, 46.1 µM
# [12] = RPMI 5 mM glucose + 10% FBS, 0.000781 µM
# [13] = RPMI 5 mM glucose + 10% FBS, 0.00234 µM
# [14] = RPMI 5 mM glucose + 10% FBS, 0.00702 µM
# [15] = RPMI 5 mM glucose + 10% FBS, 0.0211 µM
# [16] = RPMI 5 mM glucose + 10% FBS, 0.0632 µM
# [17] = RPMI 5 mM glucose + 10% FBS, 0.19 µM
# [18] = RPMI 5 mM glucose + 10% FBS, 0.569 µM
# [19] = RPMI 5 mM glucose + 10% FBS, 1.71 µM
# [20] = RPMI 5 mM glucose + 10% FBS, 5.12 µM
# [21] = RPMI 5 mM glucose + 10% FBS, 15.4 µM
# [22] = RPMI 5 mM glucose + 10% FBS, 46.1 µM
# [23] = RPMI 5 mM glucose + 10% dialyzed FBS, 0.000781 µM
# [24] = RPMI 5 mM glucose + 10% dialyzed FBS, 0.00234 µM
# [25] = RPMI 5 mM glucose + 10% dialyzed FBS, 0.00702 µM
# [26] = RPMI 5 mM glucose + 10% dialyzed FBS, 0.0211 µM
# [27] = RPMI 5 mM glucose + 10% dialyzed FBS, 0.0632 µM
# [28] = RPMI 5 mM glucose + 10% dialyzed FBS, 0.19 µM
# [29] = RPMI 5 mM glucose + 10% dialyzed FBS, 0.569 µM
# [30] = RPMI 5 mM glucose + 10% dialyzed FBS, 1.71 µM
# [31] = RPMI 5 mM glucose + 10% dialyzed FBS, 5.12 µM
# [32] = RPMI 5 mM glucose + 10% dialyzed FBS, 15.4 µM
# [33] = RPMI 5 mM glucose + 10% dialyzed FBS, 46.1 µM
Structure (SMILES),cell viability [1] [%],cell viability [2] [%],cell viability [3] [%],cell viability [4] [%],cell viability [5] [%],cell viability [6] [%],cell viability [7] [%],cell viability [8] [%],cell viability [9] [%],cell viability [10] [%],cell viability [11] [%],cell viability [12] [%],cell viability [13] [%],cell viability [14] [%],cell viability [15] [%],cell viability [16] [%],cell viability [17] [%],cell viability [18] [%],cell viability [19] [%],cell viability [20] [%],cell viability [21] [%],cell viability [22] [%],cell viability [23] [%],cell viability [24] [%],cell viability [25] [%],cell viability [26] [%],cell viability [27] [%],cell viability [28] [%],cell viability [29] [%],cell viability [30] [%],cell viability [31] [%],cell viability [32] [%],cell viability [33] [%]
Cc1nc(NC(=O)N2CCC[C@H]2C(N)=O)sc1-c1ccnc(C(C)(C)C(F)(F)F)c1,91.6,98.2,84.2,96.9,93,72.5,74.4,63.3,59.1,52.7,100,98.7,111,102,121,112,91.1,97.8,86.6,74.5,68.2,119,96.3,95.9,84,93,85.7,92.3,86.1,77.2,62.2,58,89.2
CC1CCC(C(=O)N(c2cc(C#CC(C)(C)C)sc2C(=O)O)C2CCC(O)CC2)CC1 (stereo not given),106,109,99.2,103,98,93.3,89.1,96,77.3,48.9,44.2,130,119,118,129,116,115,110,123,97.4,61.1,49.8,91.7,106,90.3,87.9,90.3,90.3,96.6,88.3,77.6,44.7,41.8
O=C(NOCC(O)CO)c1cc(Br)c(F)c(F)c1Nc1ccc(I)cc1F (stereo not given),66.2,76.3,73,78.6,77.2,83,80.4,62.4,46.3,60.7,44.1,63.8,92,76.8,90.1,94.4,80.3,70.8,69.3,52.7,45.7,37,73.3,95.8,67.4,83.1,81.6,67.5,54.1,61.1,39,37.1,42.1
COc1nccc(-c2c(-c3ccc(F)cc3)ncn2C2CCNCC2)n1,98.2,114,120,107,120,114,113,110,102,98.7,81.7,,,,,,,,,,,,69.4,117,144,113,116,114,104,126,110,95.8,79.5
CCC1(C)CC(=O)NC1=O (stereo not given),107,102,109,112,114,114,106,95.5,110,94.5,81.7,113,101,107,107,103,106,106,93.7,103,92.3,72.3,93.7,114,117,114,116,108,110,99.7,108,94,74.3
C[C@]12C[C@H](O)[C@H]3[C@@H](CC\C4=C\C(=O)\C=C/[C@]34C)[C@@H]1CC[C@]2(O)C(=O)CO,113,112,119,118,129,118,98.6,102,44.8,67.2,22.6,118,115,114,143,123,127,107,90.1,40.9,64.9,19.6,,,,,,,,,,,
C[C@H](O)[C@H]1[C@@H]2[C@H](C)C(=C(\N2C1=O)C(O)=O)/S[C@@H]3CN[C@H](CN[S+](N)([O-])=O)C3,116,121,122,130,132,113,108,108,100,108,111,124,123,136,128,132,115,125,112,120,118,109,,,,,,,,,,,
COc1c(C)cnc(Cn2cnc3c(Cl)nc(N)nc32)c1C,94.1,106,103,112,102,76.9,52.8,28.3,15.9,22.3,17.6,108,125,99.6,115,100,77.3,50,25.5,16.1,22.9,17.3,115,104,106,116,124,78.6,52.9,33.1,15.8,25,22.1
CNC1CCC(N(Cc2cccc(-c3ccncc3)c2)C(=O)c2sc3ccccc3c2Cl)CC1 (stereo not given),86.2,93.2,104,90.6,87.9,105,95.5,25.6,4.92,3.48,2.45,90.1,83.7,100,114,88.5,97.4,18.2,6.65,5.64,3.32,1.88,76.6,82.9,95.5,98.5,77.7,99.1,81.6,6.38,5.65,3.68,2.48
CC(C)(C)C(=O)Oc1ccc2c(c1)nc(NC(=O)c1cccc([N+](=O)[O-])c1)n2CCCO,107,122,118,119,110,120,110,104,102,88.5,93.2,130,120,118,112,117,126,114,95.7,97.5,105,118,121,138,122,116,108,121,101,81.1,107,106,128
C#Cc1cccc(Nc2ncnc3cc(OCCOC)c(OCCOC)cc23)c1,93.5,95.7,90.4,95.2,102,104,92.9,94.7,71.5,83,32.9,119,133,120,128,114,119,97.1,115,77.9,107,27.4,86.8,104,90.5,99.2,90.2,93.6,87.5,77.9,59.7,68.6,19.9
CC\1=C/C=C\C=[N]1[Pt](N)(Cl)Cl,82,79.2,91.4,96.5,102,84.1,89.5,89,98.1,83.6,85.1,99.2,119,126,108,119,124,114,109,110,120,58,80.5,90.5,97.1,100,98.1,91.4,87.3,83,91.5,79.5,55.9
CC1=CC=CC=C1N2\C(=N/C3=C(C(=CC=C3)C)C2=O)C[N]4C=NC5=C4N=CN=C5N,97.1,110,115,92.6,83.8,77.7,67.3,72.1,49.6,46.6,37.2,90.8,93,94.3,65.9,83.4,62.1,59.4,54.8,45,34.4,20.8,93.2,112,120,84.3,90,77.5,68.1,64.8,53.5,46.2,33.8
Cn1c(=O)c2c(ncn2C)n(C)c1=O.O=C(O)CC(O)(CC(=O)O)C(=O)O,124,117,110,111,112,128,118,114,122,121,106,117,107,112,107,117,106,115,96.1,103,110,89.7,113,114,120,123,112,124,115,114,117,124,112
CC1(C)O[C@@H]2C[C@H]3[C@@H]4CCC5=CC(=O)C=C[C@]5(C)[C@@]4(F)[C@@H](O)C[C@]3(C)[C@]2(C(=O)CO)O1,74.9,83.6,109,50.6,91.2,83.5,6.87,30.7,14.9,14.2,26.3,76.9,97,103,61.7,78.3,79.3,7.13,22.6,45.9,17.7,30.4,73.1,82.4,109,96.4,101,75.7,7.45,20.3,47.6,11.4,19.8
COc1cnc(N[S+](=O)([O-])c2ccc(N)cc2)nc1,75.9,96.2,85.7,86.1,93.2,94.6,91.9,93.1,109,102,103,94.9,97.4,99.7,104,101,107,113,97.3,107,102,105,75.9,91.6,106,104,93.7,107,108,115,117,106,118
